Values quoted from earlier work, collected in patent US9993560B2, “Rifaximin complexes” (Cipla Limited, priority 2008, dated 2018).

CO[C@H]1/C=C/O[C@@]2(C)Oc3c(C)c(O)c4c(O)c(c5c(nc6cc(C)ccn65)c4c3C2=O)NC(=O)/C(C)=C\C=C\[C@H](C)[C@H](O)[C@@H](C)[C@@H](O)[C@@H](C)[C@H](OC(C)=O)[C@@H]1C [rifaximin, (2S, 16Z, 18E, 20S, 21S, 22R, 23R, 24R, 25S, 26S, 27S, 28E)-5,6,21,23,25-pentahydroxy-27-methoxy-2,4,11,16,20,22,24,26-octamethyl-2,7-(epoxypentadeca-[1,11,13]-trienimino)benzofuro-[4,5-e]-pyrido-[1,2-a]-benzimidazole-1,15-(2H)-dione, 25-acetate]
solubility in water (water): sparingly soluble

CO[C@H]1/C=C/O[C@@]2(C)Oc3c(C)c(O)c4c(O)c(c5c(nc6cc(C)ccn65)c4c3C2=O)NC(=O)/C(C)=C\C=C\[C@H](C)[C@H](O)[C@@H](C)[C@@H](O)[C@@H](C)[C@H](OC(C)=O)[C@@H]1C [β-form of rifaximin]
solubility compared with other known forms of rifaximin: least soluble known form of rifaximin
